In patent US8889727B2, “Topical antifungal agent” (Meiji Seika Pharma Co., Ltd., priority 2011, dated 2014):
In brackets after ≈: the same amount, converted by molar mass. Counter-ions that a name gives are not always drawn.

Assays:
[1] = system: T. rubrum ATCC10218; assay: Measurement of antifungal activity (MIC, WST8 growth inhibition); format: cell-based; details: Trichophyton rubrum, 96 h; 80% growth inhibition concentration; T. rubrum ATCC10218, RPMI1640/MOPS, 28° C., 4 days
Protocol: (§1) The compounds for evaluation were dissolved in dimethyl sulfoxide (DMSO) and used. As the test medium, RPMI1640 medium containing 0.165 M 3-morpholino propane sulfonic acid (MOPS) was used. As the test strain, T. mentagrophytes ATCC18748 or T. rubrum ATCC10218 was used. 100 μL of the test strain each at a concentration of 1×10^4 conidia/mL was dispensed, mixed with compounds for evaluation on 96 well half area plate so that the concentration of DMSO becomes 1%, and cultured at 28° C. for 3 days (for T. mentagrophytes) or for 4 days (for T. rubrum). Then, 5 μL of Cell Counting Kit8 (WST8) was added and the absorbances at 450 nm and 595 nm was measured as background. Subsequently, they were incubated at 28° C. for 5 hours (for T. mentagrophytes) or overnight (for T. rubrum) to color, and again the absorbances at 450 nm and 595 nm was measured, and then calculated the growth inhibition percentages using the differences from the background, and 80% growth inhibition concentration was regarded as MIC (μg/ml). Measurement of antifungal activity was conducted by the following method. Compounds for evaluation were dissolved in dimethyl sulfoxide (DMSO) and used. As the test medium, RPMI1640 medium containing 0.165 M 3-morpholinopropane sulfonic acid (MOPS) was used. As the test strain, T. mentagrophytes ATCC18748 or T. rubrum ATCC10218 was used. 100 μL of the test strain was dispensed at a concentration of 1×10^4 conidia/mL, mixed with compounds for evaluation on 96 well half area plate so that the concentration of DMSO becomes 1%, and cultured at a culture temperature of 28° C. for 3 days (for T. mentagrophytes) or for 4 days (for T. rubrum). Then, 5 μL of Cell Counting Kit8 (WST8) was added and the absorbances at 450 nm and 595 nm was measured as background. Subsequently, they were incubated at 28° C. for 5 hours (for T. mentagrophytes) or overnight (for T. rubrum), and again measured the absorbances at 450 nm and 595 nm was measured, and then calculated the growth inhibition percentages using the differences from the background, and 80% growth inhibition concentration was regarded as MIC (μg/ml).

[2] = system: T. mentagrophytes ATCC18748; assay: as above; format: cell-based; details: Trichophyton mentagrophytes, 72 h; 80% growth inhibition concentration; T. mentagrophytes ATCC18748, RPMI1640/MOPS, 28° C., 3 days
Protocol: as §1

[3] = Nail permeability test (bovine hoof slice on agarose); format: in vitro ADME; details: 2 μL of 10 mg/mL solution on bovine hoof slice (about 100 μm), 28° C., 5 days
Protocol: Compounds for evaluation were each dissolved in a solution of ethyl acetate:propylene glycol (1:1) or dimethyl sulfoxide at a concentration of 10 mg/mL. 2 μL each of the solutions was added to a bovine hoof slice placed on a low-melting-point agarose. After incubation at 28° C. for 5 days, the agaroses were collected, distilled water was added thereto, and the mixtures were heated and dissolved. The concentrations of the compound in the solutions were determined using a high performance liquid chromatography/mass spectrometry apparatus to obtain the amounts of the agents permeated through the hoof and to calculate the permeabilities of the respective agents. Since the permeability of bovine hoof and human nail correlates as described in J. Pharma. Pharmacol., vol. 49, pp. 866-872, 1997, the nail permeability test was conducted using a bovine hoof in the present invention. Example compounds and comparative compounds (amorolfine hydrochloride, terbinafine hydrochloride and ciclopirox) were each dissolved in a solution of ethyl acetate:propylene glycol (1:1) or dimethyl sulfoxide at a concentration of 10 mg/mL. […] The concentrations of the compounds in the solutions were determined using a high performance liquid chromatography/mass spectrometry apparatus to obtain the amounts of the agents permeated through the nail and calculate the permeabilities of the respective agents.

SMILES | MIC [1] | MIC [2] | Nail permeability [3] | inhibition of growth at 32 µg/mL [2]
CCC(C)(C)c1ccc(CC(C)CN2C[C@@H](C)O[C@@H](C)C2)cc1 (some centres unmarked) [Amorolfine hydrochloride, reference compound] | ≤ 2 µg/mL | ≤ 1 µg/mL | E (<0.1%) | –
Cc1cc(C)n(-c2ccc([N+](=O)[O-])cc2O)n1 [Example 28, 2-(3,5-Dimethyl-1H-pyrazol-1-yl)-5-nitrophenol] | 16 to 32 µg/mL (≈ 68.6 to 137 µM) | 2 to 8 µg/mL (≈ 8.58 to 34.3 µM) | – | –
Cc1cc(C)n(-c2ccc(Br)cc2O)n1 [Example 54, 5-bromo-2-(3,5-dimethyl-1H-pyrazol-1-yl)phenol] | ≤ 2 µg/mL | ≤ 1 µg/mL | – | –
Cc1cc(C)n(-c2cc(O)ccc2O)n1 [Example 16, 2-(3,5-Dimethyl-1H-pyrazol-1-yl)benzene-1,4-diol] | > 64 µg/mL | 16 to 32 µg/mL (≈ 78.3 to 157 µM) | – | –
CN(C/C=C/C#CC(C)(C)C)Cc1cccc2ccccc12 [Terbinafine hydrochloride, reference compound] | ≤ 2 µg/mL | ≤ 1 µg/mL | E (<0.1%) | –
Cc1cc(C)n(-c2ccc(F)cc2O)n1 [Example 25, 2-(3,5-Dimethyl-1H-pyrazol-1-yl)-5-fluorophenol] | 4 to 16 µg/mL (≈ 19.4 to 77.6 µM) | 2 to 8 µg/mL (≈ 9.7 to 38.8 µM) | – | –
Cc1nn(-c2ccc(Br)cc2O)c(C)c1Cl [Example 55, 5-bromo-2-(4-chloro-3,5-dimethyl-1H-pyrazol-1-yl)phenol] | ≤ 2 µg/mL | ≤ 1 µg/mL | – | –
CNc1ccc(-n2nc(C)cc2C)c(O)c1 [Example 48, 2-(3,5-Dimethyl-1H-pyrazol-1-yl)-5-methylaminophenol] | 4 to 16 µg/mL (≈ 18.4 to 73.6 µM) | 2 to 8 µg/mL (≈ 9.21 to 36.8 µM) | – | –
Cc1cc(C)n(-c2ccc(C(=O)N(C)C)cc2O)n1 [Example 38, 4-(3,5-Dimethyl-1H-pyrazol-1-yl)-3-hydroxy-N,N-dimethylbenzamide] | 4 to 16 µg/mL (≈ 15.4 to 61.7 µM) | 16 to 32 µg/mL (≈ 61.7 to 123 µM) | – | –
CC(=O)Oc1ccc(-n2nc(C)c(C)c2C)c(O)c1 [Example 59, 3-hydroxy-4-(3,4,5-trimethyl-1H-pyrazol-1-yl)phenyl acetate] | 4 to 16 µg/mL | 2 to 8 µg/mL | – | –
Cc1cc(C)n(-c2ccccc2O)n1 [Example 1, 2-(3,5-Dimethyl-1H-pyrazol-1-yl)phenol] | 4 to 16 µg/mL (≈ 21.3 to 85 µM) | 2 to 8 µg/mL (≈ 10.6 to 42.5 µM) | – | –
Cc1cc(C)n(-c2ccc(O)cc2O)n1 [Example 33, 4-(3,5-Dimethyl-1H-pyrazol-1-yl)benzene-1,3-diol] | ≤ 2 µg/mL | 2 to 8 µg/mL (≈ 9.79 to 39.2 µM) | – | –
Cc1cc(C)n(-c2cccc(C)c2O)n1 [Example 51, 2-(3,5-dimethyl-1H-pyrazol-1-yl)-6-methylphenol] | 32 to 64 µg/mL (≈ 158 to 316 µM) | – | – | < 50%
Cc1cc(C)n(-c2ccc(Cl)cc2O)n1 [Example 26, 5-Chloro-2-(3,5-dimethyl-1H-pyrazol-1-yl)phenol] | ≤ 2 µg/mL | ≤ 1 µg/mL | – | –
CCc1c(C)nn(-c2ccccc2O)c1C [Example 17, 2-(4-Ethyl-3,5-dimethyl-1H-pyrazol-1-yl)phenol] | ≤ 2 µg/mL | ≤ 1 µg/mL | – | –
Cc1nn(-c2ccc([N+](=O)[O-])cc2O)c(C)c1C [Example 32, 5-Nitro-2-(3,4,5-trimethyl-1H-pyrazol-1-yl)phenol] | 4 to 16 µg/mL (≈ 16.2 to 64.7 µM) | 2 to 8 µg/mL (≈ 8.09 to 32.4 µM) | – | –
Cc1ccnn1-c1ccccc1O [Example 8, 2-(5-Methyl-1H-pyrazol-1-yl)phenol] | > 64 µg/mL | 16 to 32 µg/mL (≈ 91.8 to 184 µM) | – | –
Cc1ccc(O)c(-n2nc(C)cc2C)c1 [Example 49, 2-(3,5-Dimethyl-1H-pyrazol-1-yl)-4-methylphenol] | 32 to 64 µg/mL (≈ 158 to 316 µM) | – | – | < 50%
